The source of these data is article PMC8375990, “The flavin monooxygenase Bs3 triggers cell death in plants, impairs growth in yeast and produces H2O2 in vitro” (PLoS ONE, 2021).

Structures are written as SMILES.

One may read the inhibition as the change of the read-out against control, counted positive when it falls.

The target in experiment [1] is T1, Bs3 (Capsicum annuum, UniProt A8TVP6).
T1 construct: gene T459_32270; Gateway recombination site and the two N-terminal methionines deleted
T1 sequence (A8TVP6 3-342): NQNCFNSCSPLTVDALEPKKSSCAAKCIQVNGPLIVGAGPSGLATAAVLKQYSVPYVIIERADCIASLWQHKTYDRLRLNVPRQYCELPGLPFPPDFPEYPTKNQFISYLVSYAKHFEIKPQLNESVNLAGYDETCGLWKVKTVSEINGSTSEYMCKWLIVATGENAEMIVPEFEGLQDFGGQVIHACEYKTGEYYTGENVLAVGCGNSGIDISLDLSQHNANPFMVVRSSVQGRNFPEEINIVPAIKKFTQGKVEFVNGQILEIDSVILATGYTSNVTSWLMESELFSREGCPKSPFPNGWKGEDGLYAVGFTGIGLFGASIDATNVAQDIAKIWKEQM
Kind of experiment: UV-vis spectrum of purified protein. Conditions: FAD added to lysis buffer; co-purified. It is filed as binding.

For experiment [2], the target named is T2, Bs3 (Capsicum annuum, UniProt A8TVP6, S211A).
T2 construct: gene T459_32270; Gateway recombination site and the two N-terminal methionines deleted
T2 sequence (A8TVP6 entry or part of it S211A): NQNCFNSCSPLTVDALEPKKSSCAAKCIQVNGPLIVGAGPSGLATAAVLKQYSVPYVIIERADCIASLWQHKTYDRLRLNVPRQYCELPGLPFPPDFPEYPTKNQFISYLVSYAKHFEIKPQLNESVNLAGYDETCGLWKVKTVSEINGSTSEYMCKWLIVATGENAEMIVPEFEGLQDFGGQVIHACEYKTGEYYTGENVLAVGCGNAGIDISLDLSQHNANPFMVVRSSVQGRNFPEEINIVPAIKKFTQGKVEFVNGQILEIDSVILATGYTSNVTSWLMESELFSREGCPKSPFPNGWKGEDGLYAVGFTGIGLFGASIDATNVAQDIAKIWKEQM
Kind of experiment: UV-vis spectrum of purified protein. It is filed as binding. The settings on record: FAD added to lysis buffer; co-purified.

Experiment [3] addresses T1, Bs3. Briefly: NADPH oxidation, decrease of absorbance at […] nm. It is filed as biochemical.

As to `Cc1cc2nc3c(=O)[nH]c(=O)nc-3n(C[C@H](O)[C@H](O)[C@H](O)COP(=O)(O)OP(=O)(O)OC[C@H]3O[C@@H](n4cnc5c(N)ncnc54)[C@H](O)[C@@H]3O)c2cc1C` [FAD], the “UV-vis spectrum of purified protein” value at Bs3 [1] is “purified Bs3 and Bs3S211A proteins were bright yellow and the UV-vis spectra show characteristic peaks”; on Bs3 [2] it was “purified Bs3 and Bs3S211A proteins were bright yellow and the UV-vis spectra show characteristic peaks”. `Cn1cc[nH]c1=S` [methimazole] returned an inhibition at 50 µM at Bs3 [3] of 79%. Same read-out and setting: then `Sc1nnc(-c2ccc(Cl)cc2)[nH]1` [yucasin], with 95%.
